One series relates to Enterobacter cloacae. Kind of series: In vitro antibacterial activity, agar dilution method (MIC). The format is cell-based. How it is done: According to the relevant operating procedures of the Clinical Laboratory Standards Institute (CLSI) in the United States, an antimicrobial susceptibility testing was conducted using the agar dilution method. […] The agar was allowed to solidify and set aside for later use.
The test bacteria were propagated in broth and adjusted to a turbidity of 0.5 McFarland (approximately 1-2 × 10^8 CFU/mL) using a turbidimeter before inoculation. The 0.5 McFarland bacterial solution was then diluted 10-fold in broth (approximately 1-2 × 10^7 CFU/mL). A multipoint inoculator was used to inoculate the above bacterial solution onto a series of plates containing different concentrations of drugs (with an inoculation amount of approximately 10^4 CFU per inoculation site). After incubation at a constant temperature of 35°C for 18 hours, results were observed. The minimum concentration of drugs contained in sterile growth plates was determined as the Minimal Inhibitory Concentration (MIC).

In series [1] the test system is Escherichia coli ATCC BAA2469 (CRE, NDM-1-producing). Kind of series: In vivo antibacterial activity, intraperitoneal infection in mice (survival over 7 days). The following applies: for effective dose of in vivo antibacterial activity: mice with intraperitoneal infection by Escherichia coli ATCC BAA2469, intravenous; for Animal survival rate / Number of surviving animals: mice, one intravenous administration 1 hour post-infection, 7 days; for Number of surviving animals: 5 animals per group. The protocol: Mice were randomly grouped based on body weight, with 5 mice in each group, regardless of gender. The infectious bacteria was Escherichia coli ATCC BAA2469 (CRE, NDM-1-producing). The test bacterial solution was diluted with 5% high-activity dry yeast. Mice received intraperitoneal injection of 0.5 mL of 100% minimum lethal dose (100% MLD) bacterial solution. One intravenous administration was given at 1 hour post-infection at a dose volume of 10 mL/kg. Animal survival numbers were observed over 7 days, and survival rates were calculated.

In another series the test system is ICR strain mice. Kind of series: Acute toxicity in mice, single tail vein injection. The class given is in vivo. The following applies: one week. How it is done: Healthy ICR strain mice weighing 20-21 g were taken for the experiment, randomly divided into groups of 3 mice per group, regardless of gender. Each compound was administered via a single tail vein injection at a volume of 20 mL/kg. Animal responses were observed immediately postadministration and monitored for one week. The number of animal deaths was recorded and mortality rates calculated.

Series [2] addresses T1, recombinant Escherichia coli LpxC enzyme (rLpxC) (Escherichia coli, UniProt P0A725).
T1 sequence (P0A725 1-305): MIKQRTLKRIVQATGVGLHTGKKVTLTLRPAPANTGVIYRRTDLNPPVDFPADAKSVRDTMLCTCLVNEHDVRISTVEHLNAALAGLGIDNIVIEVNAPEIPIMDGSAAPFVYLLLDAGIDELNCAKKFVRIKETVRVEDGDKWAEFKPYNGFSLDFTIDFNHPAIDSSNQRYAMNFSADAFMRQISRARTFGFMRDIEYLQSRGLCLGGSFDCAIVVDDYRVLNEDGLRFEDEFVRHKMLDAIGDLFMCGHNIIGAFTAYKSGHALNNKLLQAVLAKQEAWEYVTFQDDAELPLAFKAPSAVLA
Kind of series: Inhibition of recombinant Escherichia coli LpxC enzyme activity (LC-MS). The following applies: 37°C, 30 minutes reaction, substrate UDP-3-O (R-hydroxytetradecanoyl)-N-acetylglucosamine. The class given is biochemical. The protocol:
Preparation of recombinant Escherichia coli LpxC enzyme (rLpxC). 2 µL of recombinant Escherichia coli LpxC enzyme (6.29 mg/mL) was added to 18 µL of distilled water. After thorough mixing, 2 µL of this mixture was added to 1042.4 µL of distilled water and mixed well to prepare a 36 nM working solution.
The substrate was UDP-3-O (R-hydroxytetradecanoyl)-N-acetylglucosamine, with UDP-α-D-N-Acetylglucosamine Disodium Salt as the internal standard. Mobile phase A: 90% water-10% acetonitrile containing 10 mM ammonium acetate; B: acetonitrile.
Reaction system: Corresponding solutions were prepared as per the table below, and placed in a 37°C metal bath, and mixed at 300 rpm for 10 minutes. After mixing for 10 minutes, 10 µl of 250 µM substrate was added to each group to initiate the reaction, and placed in a 37°C metal bath and reacted at 300 rpm for 30 minutes.
Termination solution: 1.1 µL of 1 mM internal standard was added to 2 mL of acetonitrile. 1.5 mL of EP tubes were taken and 100 µL of termination solution was added to each EP tube. The concentration of the internal standard in the final 350 µL system is 100 ng/mL.
Detection: 10 µL of reaction solution was added to 100 µL of the termination solution in an EP tube, mixed thoroughly, and then 240 µL of distilled water was added and mixed well, centrifuged at 14,000 rpm for 5 minutes. 70 µL of supernatant was transferred to an LC-MS vial and API 6500 Qtrap LC-MS system was used to measure substrates and metabolites. The median inhibition concentrations (IC50) of the four optical isomers and ACHN-975 against rLpxC enzyme were calculated. Table 4 Inhibitory activity of 4 optical isomers and control drug against recombinant Escherichia coli LpxC enzyme

The mark [3] stands for this setting: Enterobacter cloacae CDC1000654 (NDM-1-producing), agar dilution, 35°C, 18 hours, read-out: MIC.

The structures appear in SMILES notation. ≈ marks a conversion by molar mass, not a printed value. Read-outs that look alike come from different tables or passages of the source.

Data on seven compounds can be found in patent EP4745118A1, “HYDROXAMIC ACID COMPOUND OR PHARMACEUTICALLY ACCEPTABLE SALT THEREOF, AND USE THEREOF AND PREPARATION METHOD THEREFOR” (priority 2023, dated 2025).

A word on the MIC: it is the lowest concentration that inhibits growth of the organism. As usually defined, the IC50 is the concentration needed to halve the response being measured.

In the case of `COCC1CC1C#CC#Cc1ccc(C(=O)NC(C(=O)NO)C(C)(C)N)cc1` (mixture of isomers) [Ia/Ib racemate], the MIC against Enterobacter cloacae (Enterobacter cloacae CDC1000654 (NDM-1-producing), agar dilution, 35°C, 18 hours) is 2 µg/mL. For the same compound, the “effective dose of in vivo antibacterial activity” value (“effective dose” for short) in series [1] is “below 1.5 mg/kg”. The Animal survival rate in series [1] (dose 0.35 mg/kg) was 0%; in series [1] (dose 0.7 mg/kg), 0%; in series [1] (dose 1.4 mg/kg), 40%. In addition, the “Number of surviving animals” value stood at 0 individuals in series [1] (dose 0.35 mg/kg), 0 individuals in series [1] (dose 0.7 mg/kg) and 2 individuals in series [1] (dose 1.4 mg/kg). In addition, the Mortality rate in the series on ICR strain mice (dose 100 mg/kg) came out at 0%; with ICR strain mice (dose 150 mg/kg) it was 100%. In addition, the values for the Number of deaths in the series on ICR strain mice (dose 100 mg/kg) and in the series with ICR strain mice (dose 150 mg/kg) were 0 individuals and 3 individuals, respectively. Also, the IC50 in series [2] was found to be 1.03 nM.
In the series on Enterobacter cloacae (Enterobacter cloacae, 18 h), `CC(C)(N)[C@H](NC(=O)c1ccc(C#CC#C[C@@H]2C[C@H]2CO)cc1)C(=O)NO` [ACHN-975] gave an MIC of 4 µg/mL (≈ 10.8 µM). Moreover, the “effective dose” value in series [1] is greater than 1.5 mg/kg. The results for the Animal survival rate in series [1] (dose 1.5 mg/kg), in series [1] (dose 3 mg/kg) and in series [1] (dose 6 mg/kg) were 0%, 60% and 100%, respectively. For the same compound, the “Number of surviving animals” value is on record as 0 individuals in series [1] (dose 1.5 mg/kg), 3 individuals in series [1] (dose 3 mg/kg) and 5 individuals in series [1] (dose 6 mg/kg). The Mortality rate with ICR strain mice (dose 50 mg/kg) came out at 0%; with ICR strain mice (dose 100 mg/kg), 67%; in the series on ICR strain mice (dose 150 mg/kg), 100%. In addition, the Number of deaths in the series on ICR strain mice (dose 50 mg/kg) is 0 individuals; in the series with ICR strain mice (dose 100 mg/kg) it was 2 individuals; in the series with ICR strain mice (dose 150 mg/kg) it was 3 individuals. The IC50 in series [2] is 1.07 nM.
`CO[C@H]1CCC[C@@H]1C#CC#Cc1ccc(C(=O)N[C@H](C(=O)NO)C(C)(C)N)cc1` [A]: the MIC with Enterobacter cloacae (setting [3]) was found to be 4 µg/mL (≈ 10.1 µM). The “effective dose” value in series [1] was greater than 3 mg/kg. In addition, the Animal survival rate in series [1] (dose 1.5 mg/kg) came out at 0%; in series [1] (dose 3 mg/kg), 0%; in series [1] (dose 6 mg/kg), 20%. In addition, the “Number of surviving animals” value amounted to 0 individuals in series [1] (dose 1.5 mg/kg), 0 individuals in series [1] (dose 3 mg/kg) and 1 individuals in series [1] (dose 6 mg/kg). Further, the Mortality rate with ICR strain mice (dose 150 mg/kg) amounted to 0%; in the series on ICR strain mice (dose 200 mg/kg), 100%. For the same compound, the Number of deaths in the series on ICR strain mice (dose 150 mg/kg) is 0 individuals; with ICR strain mice (dose 200 mg/kg), 3 individuals. The half-inhibitory concentration (IC50) in series [2] stood at 4.68 nM.
`COC[C@@H]1C[C@H]1C#CC#Cc1ccc(C(=O)N[C@H](C(=O)NO)C(C)(C)N)cc1` [Ia, N-(S)-3-amino-1-hydroxyamino-3-methyl-1-oxobutan-2-yl-4-[[(1R,2R)-2-(methoxymethylene)cyclopropyl]but-1,3-diynyl]benzamide]: the MIC in the series with Enterobacter cloacae (setting [3]) is 1 µg/mL (≈ 2.61 µM). Also, the “effective dose” value in series [1] is recorded as “below 1.5 mg/kg”. In addition, in series [1] (dose 0.35 mg/kg), the Animal survival rate was 0% and the “Number of surviving animals” value came to 0 individuals. Further, in series [1] (dose 1.4 mg/kg), the Animal survival rate amounted to 80% and the “Number of surviving animals” value is 4 individuals. In the series on ICR strain mice (dose 150 mg/kg), this compound had a Mortality rate of 0% and a Number of deaths of 0 individuals. In the series with ICR strain mice (dose 200 mg/kg), this compound gave a Mortality rate of 100% and a Number of deaths of 3 individuals. Moreover, the IC50 in series [2] turned out to be 1.07 nM.
Regarding `COC[C@H]1C[C@@H]1C#CC#Cc1ccc(C(=O)N[C@H](C(=O)NO)C(C)(C)N)cc1` [Ib, N-(S)-3-amino-1-hydroxyamino-3-methyl-1-oxobutan-2-yl-4-[[(1S,2S)-2-(methoxymethylene)cyclopropyl]but-1,3-diynyl]benzamide], the MIC against Enterobacter cloacae (Enterobacter cloacae, 18 h) came to 2 µg/mL (≈ 5.22 µM). Further, the “effective dose” value in series [1] is recorded as “below 1.5 mg/kg”. Moreover, in series [1] (dose 1.4 mg/kg), the Animal survival rate is listed as 60%. In the series with ICR strain mice (dose 150 mg/kg), this compound returned a Mortality rate of 0% and a Number of deaths of 0 individuals. In the series on ICR strain mice (dose 200 mg/kg), this compound returned a Mortality rate of 100% and a Number of deaths of 3 individuals. The IC50 in series [2] amounted to 0.857 nM.
In the case of `COC[C@H]1C[C@H]1C#CC#Cc1ccc(C(=O)N[C@H](C(=O)NO)C(C)(C)N)cc1` [Ic, N-(S)-3-amino-1-hydroxyamino-3-methyl-1-oxobutan-2-yl-4-[[(1R,2S)-2-(methoxymethylene)cyclopropyl]but-1,3-diynyl]benzamide], the MIC with Enterobacter cloacae (setting [3]) came to 1 µg/mL (≈ 2.61 µM). Further, in series [1], the “effective dose” value is “below 1.5 mg/kg”. Further, the values for the Animal survival rate in series [1] (dose 0.35 mg/kg) and in series [1] (dose 1.4 mg/kg) were 0% and 80%, respectively. The “Number of surviving animals” value in series [1] (dose 0.35 mg/kg) is recorded as 0 individuals. In addition, the values for the Mortality rate with ICR strain mice (dose 100 mg/kg), in the series with ICR strain mice (dose 150 mg/kg) and in the series on ICR strain mice (dose 200 mg/kg) were 0%, 33% and 100%, respectively. The Number of deaths in the series with ICR strain mice (dose 100 mg/kg) was found to be 0 individuals; in the series with ICR strain mice (dose 150 mg/kg) it was 1 individuals; in the series on ICR strain mice (dose 200 mg/kg) it was 3 individuals. The IC50 in series [2] came out at 0.905 nM.
In the case of `COC[C@@H]1C[C@@H]1C#CC#Cc1ccc(C(=O)N[C@H](C(=O)NO)C(C)(C)N)cc1` [Id, N-(S)-3-amino-1-hydroxyamino-3-methyl-1-oxobutan-2-yl-4-[[(1S,2R)-2-(methoxymethylene)cyclopropyl]but-1,3-diynyl]benzamide], the minimum inhibitory concentration (MIC) with Enterobacter cloacae (setting [3]) is 1 µg/mL (≈ 2.61 µM). Besides, the “effective dose” value in series [1] is on record as “below 1.5 mg/kg”. Further, the Animal survival rate in series [1] (dose 0.35 mg/kg) is recorded as 0%; in series [1] (dose 0.7 mg/kg), 0%; in series [1] (dose 1.4 mg/kg) it was 60%. Moreover, the results for the “Number of surviving animals” value in series [1] (dose 0.35 mg/kg), in series [1] (dose 0.7 mg/kg) and in series [1] (dose 1.4 mg/kg) were 0 individuals, 0 individuals and 3 individuals, respectively. Besides, the Mortality rate is listed as 0% in the series on ICR strain mice (dose 100 mg/kg), 67% in the series on ICR strain mice (dose 150 mg/kg) and 100% with ICR strain mice (dose 200 mg/kg). The figures for the Number of deaths with ICR strain mice (dose 100 mg/kg), in the series with ICR strain mice (dose 150 mg/kg) and in the series on ICR strain mice (dose 200 mg/kg) were 0 individuals, 2 individuals and 3 individuals, respectively. Further, in series [2], the IC50 was 0.892 nM.
